Source: patent US20030166609A1, “Medicine containing polysacccharide substances for activating apoptosis” (priority 2000, published 2003)

Legend:
Assay type in all cases: cell-based, human
[1] = system: TNF alpha receptors (p55 TNF receptor) on Jurkat-type cells; test: TNF alpha receptors at the surface of Jurkat-type cells, fluorescence by flow cytometry
Experimental: In this example, the effect of dextran sulfate at a concentration of 0.1 mg/ml on the increase in the number of TNF alpha receptors on Jurkat-type cells was measured.
The medium used for culturing the Jurkat-type cells is that marketed by the company Life Technologies under the name “RPMI 1640 medium”; this medium is described by Moore et al. in the publication “A.M.A.” 199, 519 (1967).
10^6 T lymphocytes are suspended in 5 ml of this medium. The culturing was carried out in an incubator at a temperature of 37° C. and in an atmosphere containing 5% CO2. After incubation for 24 hours, the cells multiplied to reach 2×10^6 cells.
These cells are recovered by centrifugation, and are washed in an isotonic PBS buffer. A further incubation is then carried out in 1 ml of the abovementioned medium at 4° C. and in an atmosphere containing 5% CO2, for 45 minutes in the presence of an anti-human p55 TNF receptor, clone MR1-2, ref. MON9062 produced in mice by Genzyme SA, diluted to 1/50 in PBS containing 1% of bovine serum albumin (BSA).
The cells are recovered and are washed with the isotonic PBS buffer. A further incubation is carried out with an antibody against mouse immunoglobulins (IgGs) (produced in the goat) coupled to fluorescein isothiocyanate, diluted to 1/50 in PBS containing 1% of BSA. […]
The influence of the dextran sulfate is determined by introducing 0.1 mg of dextran sulfate per ml into the culture medium.
The presence of TNF alpha receptors at the surface of the cells was measured by fluorescence as in the previous examples.
In FIG. 17, in which the Y-axis represents the number (to within one multiplication factor) of TNF alpha receptors at the surface of the cells, and in which the X-axis represents the intensity of fluorescence (arbitrary units), the Gaussian distribution of the fluorescence for the control sample (curve T1) and for the sample which was incubated in the presence of 0.1 mg/ml of dextran sulfate (curve C17) is represented in the form of a curve.

[2] = system: Fas receptors at the surface of Hep-G2 liver cells; test: Fas receptors at the surface of Hep-G2 liver cells, fluorescence by flow cytometry; conditions: for Fluorescence Ratio: vs control
Experimental: Work was carried out on a culture of liver cells named Hep-G2 (marketed by ECACC (European collection of human genetic cell lines)).
The same procedure is carried out as in example 1, replacing the T lymphocytes of the Jurkat type with Hep-G2 liver cells.
The presence of Fas receptors at the surface of the cells was measured by fluorescence, as in example 1, and the results obtained are expressed as in example 1, in the form of FIGS. 9 to 12. […]
For this, the same procedure as in example 1 was carried out.

[3] = system: Fas receptors at the surface of T lymphocytes (of the Jurkat type); test: Fas receptors at the surface of Jurkat-type T lymphocytes, fluorescence by flow cytometry
Experimental: Work was carried out on a culture of immortalized human cells consisting of T lymphocytes (of the Jurkat type).
The medium used for culturing the Jurkat-type cells is that marketed by the company Life Technologies under the name “RPMI 1640 Medium”; this medium is described by Moore et al. in the publication “A.M.A.” 199, 519 (1967).
10^6 T lymphocytes of the Jurkat type were suspended in 5 ml of this medium. The culturing was carried out in an incubator at a temperature of 37° C. and in an atmosphere containing 5% CO2.
After incubation for 24 hours, the cells multiplied to reach 2×10^6 cells.
These cells are recovered by centrifugation, and are washed in an isotonic PBS buffer. A further incubation of these 2×10^6 cells is then carried out in 1 ml of the abovementioned medium at 4° C. and in an atmosphere containing 5% CO2, for 45 minutes in the presence of an anti-Fas receptor, sold under the catalog number 05-201 by Euromedex, diluted to 1/50 in PBS containing 1% of bovine serum albumin (BSA).
At the end of this incubation, the cells are collected and are washed with the isotonic PBS buffer. After washing, a further incubation of the cells is carried out for 45 minutes at 4° C. in the presence of an antibody against hamster immunoglobulins (IgGs) (produced in the goat) which is coupled to fluorescein isothiocyanate, diluted to 1/50 in PBS containing 1% of BSA (marketed by Euromedex, No. AP128F).
Controls were prepared by incubating the T lymphocytes of the Jurkat type only with the second antibody (goat anti-hamster IgG coupled to fluorescein isothio-cyanate).
The increase in the number of Fas receptors at the surface of the cells, under the action of dextran sulfate, is then determined.
Consequently, the fluorescence of the cells (which is proportional to the number of receptors present at the surface) is determined in the absence of dextran sulfate and in the presence of dextran sulfate for a number of solutions at various concentrations. The ratio of the fluorescence in the absence of dextran sulfate to the fluorescence with dextran sulfate is then calculated. In the following text, the result of this calculation is called “ratio”.
Various assays are carried out by introducing into the culture medium, at time t=0 of the experiment, dextran sulfate at the following doses: 0.2 mg/ml, 0.1 mg/ml, 0.02 mg/ml and 0.002 mg/ml; the dextran sulfate is that marketed by the company Sigma.
After various times of incubation with the dextran sulfate, the presence of Fas receptors at the surface of the cells is detected by fluorescence. This fluorescence is induced by the fluorescein isothio-cyanate coupled to the anti-Fas receptor antibodies which are attached to the Fas receptors, and was measured by passing a cell sample containing 10^4 cells through a device such as those which function by flow cytometry, in this case that marketed by the company Beckton Dickinson under the name “FACS Scan Flow Cytometer”. The intensity of the fluorescence, which is expressed in arbitrary units, therefore depends on the number of Fas receptors present at the surface of the cells making up the sample.
For each sample, the curve representing the variation in fluorescence as a function of said number of cells having receptors at their surface is constructed on a graph on which the fluorescence (arbitrary units) is recorded on the X axis and the number of cells (to within one multiplication factor) having receptors at their surface is recorded on the Y axis; this curve reflects a Gaussian-type distribution of the fluorescence.
The various assays carried out make it possible to classify the cell populations as a function of the fluorescence, i.e. as a function of the number of receptors present at the surface of the cells.
The different maximum fluorescence values for each assay, which reflect the different numbers of receptors present at the surface, depend on the active products used in the various assays. […]

[4] = Hep-G2, 0.02 mg/ml dextran sulfate (0.2 mg/ml given in source), 6 h (curve C13)
[5] = Hep-G2, 0.02 mg/ml dextran sulfate (0.2 mg/ml given in source), 24 h (curve C14)
[6] = Hep-G2, 0.02 mg/ml dextran sulfate (0.2 mg/ml given in source), 48 h (curve C15)
[7] = Hep-G2, 0.02 mg/ml dextran sulfate (0.2 mg/ml given in source), 72 h (curve C16)
[8] = Hep-G2, dextran sulfate 0.002 mg/ml (curve C12)
[9] = Hep-G2, dextran sulfate 0.02 mg/ml (curve C11)
[10] = Hep-G2, dextran sulfate 0.1 mg/ml (curve C10)
[11] = Hep-G2, dextran sulfate 0.2 mg/ml (curve C9)

Substance: dextran sulfate
- Fluorescence Value measured (peak of curve) ([1]; TNF alpha receptors, dextran sulfate 0.1 mg/ml (curve C17)): 200 arbitrary units
- Fluorescence Ratio ([1]; TNF alpha receptors, dextran sulfate 0.1 mg/ml, vs control): 1.14
- increase in the number of TNF alpha receptors at the surface ([1]; dextran sulfate 0.1 mg/ml, called weak): 10%
- minimum concentration for increase in the number of Fas receptors at the cell surface ([2]; Hep-G2): 0.02 mg/mL
- optimum concentration for increase in the number of Fas receptors at the cell surface ([2]; Hep-G2): 0.1 mg/mL
- Fluorescence Value measured (peak of curve) [2, 4]: 40 arbitrary units
- Fluorescence Ratio [2, 4]: 1.6
- Fluorescence Value measured (peak of curve) [2, 5]: 50 arbitrary units
- Fluorescence Ratio [2, 5]: 2
- Fluorescence Value measured (peak of curve) [2, 6]: 70 arbitrary units
- Fluorescence Ratio [2, 6]: 2.8
- Fluorescence Value measured (peak of curve) [2, 7]: 50 arbitrary units
- Fluorescence Ratio [2, 7]: 2
- incubation time of the maximum of the increase in the number of Fas receptors at the cell surface ([2]; Hep-G2, dextran sulfate): 48 h
- Fluorescence Value measured (peak of curve) [2, 8]: 60 arbitrary units
- Fluorescence Ratio [2, 8]: 1
- Fluorescence Value measured (peak of curve) [2, 9]: 120 arbitrary units
- Fluorescence Ratio [2, 9]: 2
- Fluorescence Value measured (peak of curve) [2, 10]: 140 arbitrary units
- Fluorescence Ratio [2, 10]: 2.3
- Fluorescence Value measured (peak of curve) [2, 11]: 160 arbitrary units
- Fluorescence Ratio [2, 11]: 2.7
- incubation time of the maximum of the increase in the number of Fas receptors at the cell surface ([3]; 0.02 mg/ml dextran sulfate): 48 h
- Fluorescence Value measured (peak of curve) ([3]; 0.02 mg/ml dextran sulfate, 6 h (curve C41)): 100 arbitrary units
- Fluorescence Ratio ([3]; 0.02 mg/ml dextran sulfate, 6 h (curve C41), vs control): 2
- Fluorescence Value measured (peak of curve) ([3]; 0.02 mg/ml dextran sulfate, 24 h (curve C42)): 120 arbitrary units
- Fluorescence Ratio ([3]; 0.02 mg/ml dextran sulfate, 24 h (curve C42), vs control): 2.4
- Fluorescence Value measured (peak of curve) ([3]; 0.02 mg/ml dextran sulfate, 48 h (curve C43)): 150 arbitrary units
- Fluorescence Ratio ([3]; 0.02 mg/ml dextran sulfate, 48 h (curve C43), vs control): 3
- Fluorescence Value measured (peak of curve) ([3]; 0.02 mg/ml dextran sulfate, 72 h (curve C44)): 80 arbitrary units
- Fluorescence Ratio ([3]; 0.02 mg/ml dextran sulfate, 72 h (curve C44), vs control): 1.6
- minimum concentration for increase in the number of Fas receptors at the cell surface ([3]; at greater dilution effect too diminished, higher concentration does not enhance): 0.02 mg/mL
- Fluorescence Value measured (peak of curve) ([3]; dextran sulfate 0.002 mg/ml (curve C5)): 90 arbitrary units
- Fluorescence Ratio ([3]; dextran sulfate 0.002 mg/ml (curve C5), vs control): 1.13
- Fluorescence Value measured (peak of curve) ([3]; dextran sulfate 0.02 mg/ml (curve C4)): 200 arbitrary units
- Fluorescence Ratio ([3]; dextran sulfate 0.02 mg/ml (curve C4), vs control): 2.50
- Fluorescence Value measured (peak of curve) ([3]; dextran sulfate 0.1 mg/ml (curve C3)): 250 arbitrary units
- Fluorescence Ratio ([3]; dextran sulfate 0.1 mg/ml (curve C3), vs control): 3.13
- Fluorescence Value measured (peak of curve) ([3]; dextran sulfate 0.2 mg/ml (curve C2)): 250 arbitrary units
- Fluorescence Ratio ([3]; dextran sulfate 0.2 mg/ml (curve C2), vs control without dextran sulfate): 3.13

Substance: iota-carrageenan [Ic]
- incubation time of the maximum of the increase in the number of Fas receptors at the cell surface ([3]; Ic 0.2 mg/ml): 24 h
- Fluorescence Value measured (peak of curve) ([3]; Ic 0.2 mg/ml, 6 h): 80 arbitrary units
- Fluorescence Ratio ([3]; Ic 0.2 mg/ml, 6 h, vs control): 1.3
- Fluorescence Value measured (peak of curve) ([3]; Ic 0.2 mg/ml, 24 h): 180 arbitrary units
- Fluorescence Ratio ([3]; Ic 0.2 mg/ml, 24 h, vs control): 2.7
- Fluorescence Value measured (peak of curve) ([3]; Ic 0.2 mg/ml, 48 h): 125 arbitrary units
- Fluorescence Ratio ([3]; Ic 0.2 mg/ml, 48 h, vs control): 2.1
- Fluorescence Value measured (peak of curve) ([3]; Ic 0.2 mg/ml, 72 h): 100 arbitrary units
- Fluorescence Ratio ([3]; Ic 0.2 mg/ml, 72 h, vs control): 1.7
